Data as given in patent US10202360B2 (CELGENE QUANTICEL RESEARCH, INC., priority 2016, dated 2019).

Target: CREBBP (Homo sapiens (Human), UniProt Q92793)
Test: In vitro enzyme inhibition assay - CREBBP inhibition (AlphaScreen, biotinylated H4-tetraacetyl peptide)
Format: binding
Conditions: Table 28; AlphaScreen, H4-tetraacetyl peptide
Procedure, shortened: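 Displacement of 20 nM biotinylated tetraacetyl-H4 peptide from 50 nM E. coli-expressed His-CREBBP, measured by AlphaScreen after bead equilibration for 2 h.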

Chain of CREBBP (Q92793 1081-1197): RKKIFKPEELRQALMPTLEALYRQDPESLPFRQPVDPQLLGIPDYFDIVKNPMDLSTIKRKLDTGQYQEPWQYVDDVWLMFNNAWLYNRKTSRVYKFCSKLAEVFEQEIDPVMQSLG

Row | Structure (SMILES) | IC50
1 | CCCCS(=O)(=O)Nc1cc(-c2c[nH]c(=O)c(C)c2)nc(Oc2c(C)cccc2Cl)n1 [Example 157, Butane-1-sulfonic acid [2-(2-chloro-6-methyl-phenoxy)-6-(5-methyl-6-oxo-1,6-dihydro-pyridin-3-yl)-pyrimidin-4-yl]-amide] | < 500 nM
2 | CCCS(=O)(=O)Nc1nc(Oc2c(C)cccc2F)nc(-c2cc(C)c(=O)n(C)c2)c1C [Example 161, Propane-1-sulfonic acid [6-(1,5-dimethyl-6-oxo-1,6-dihydro-pyridin-3-yl)-2-(2-fluoro-6-methyl-phenoxy)-5-methyl-pyrimidin-4-yl]-amide] | < 500 nM
3 | Cc1cccc(F)c1Oc1nc(NS(=O)(=O)C(C)C)c(C)c(-c2cc(C)c(=O)n(C)c2)n1 [Example 162, Propane-2-sulfonic acid [6-(1,5-dimethyl-6-oxo-1,6-dihydro-pyridin-3-yl)-2-(2-fluoro-6-methyl-phenoxy)-5-methyl-pyrimidin-4-yl]-amide] | < 500 nM
4 | CCCS(=O)(=O)Nc1nc(Oc2c(C)cccc2C)nc(-c2cc(C)c(=O)n(C)c2)c1C [Example 164, Propane-1-sulfonic acid [6-(1,5-dimethyl-6-oxo-1,6-dihydro-pyridin-3-yl)-2-(2,6-dimethyl-phenoxy)-5-methyl-pyrimidin-4-yl]-amide] | < 500 nM
5 | CCC(F)(F)S(=O)(=O)Nc1cc(-c2ccc(=O)n(C)c2)nc(Oc2c(C)cccc2F)n1 [Example 166, 1,1-Difluoro-propane-1-sulfonic acid [2-(2-fluoro-6-methyl-phenoxy)-6-(1-methyl-6-oxo-1,6-dihydro-pyridin-3-yl)-pyrimidin-4-yl]-amide] | < 500 nM
6 | CCC(F)(F)S(=O)(=O)Nc1cc(-c2ccc(=O)n(C)c2)nc(Oc2c(C)cccc2Cl)n1 [Example 170, 1,1-Difluoro-propane-1-sulfonic acid [2-(2-chloro-6-methyl-phenoxy)-6-(1-methyl-6-oxo-1,6-dihydro-pyridin-3-yl)-pyrimidin-4-yl]-amide] | < 500 nM
7 | CCS(=O)(=O)Nc1nc(Oc2c(C)cccc2F)nc(-c2cc(C)c(=O)n(C)c2)n1 [Example 171, Ethanesulfonic acid [4-(1,5-dimethyl-6-oxo-1,6-dihydro-pyridin-3-yl)-6-(2-fluoro-6-methyl-phenoxy)-[1,3,5]triazin-2-yl]-amide] | < 500 nM
8 | Cc1cccc(F)c1Oc1nc(NS(=O)(=O)C(C)C)nc(-c2cc(C)c(=O)n(C)c2)n1 [Example 172, Propane-2-sulfonic acid [4-(1,5-dimethyl-6-oxo-1,6-dihydro-pyridin-3-yl)-6-(2-fluoro-6-methyl-phenoxy)-[1,3,5]triazin-2-yl]-amide] | < 500 nM
9 | CCCS(=O)(=O)Nc1nc(Oc2c(C)cccc2F)nc(-c2ccc(=O)n(C)c2)n1 [Example 177, Propane-1-sulfonic acid [4-(2-fluoro-6-methyl-phenoxy)-6-(1-methyl-6-oxo-1,6-dihdyro-pyridin-3-yl)-[1,3,5]triazin-2-yl]-amide] | < 500 nM
10 | CCCCS(=O)(=O)Nc1nc(Oc2c(C)cccc2F)nc(-c2ccc(=O)n(C)c2)n1 [Example 178, Butane-1-sulfonic acid [4-(2-fluoro-6-methyl-phenoxy)-6-(1-methyl-6-oxo-1,6-dihydro-pyridin-3-yl)-[1,3,5]triazin-2-yl]-amide] | < 500 nM

Next, values leading:

Row | IC50 | Structure (SMILES)
11 | < 500 nM | Cc1cccc(Cl)c1Oc1nc(NS(=O)(=O)C(C)C)cc(-c2c[nH]c(=O)c(C)c2)n1 [Example 158, Propane-2-sulfonic acid [2-(2-chloro-6-methyl-phenoxy)-6-(5-methyl-6-oxo-1,6-dihydro-pyridin-3-yl)-pyrimidin-4-yl]-amide]
12 | < 500 nM | CCS(=O)(=O)Nc1nc(Oc2c(C)cccc2F)nc(-c2cc(C)c(=O)n(C)c2)c1C [Example 159, Ethane-2-sulfonic acid [6-(1,5-dimethyl-6-oxo-1,6-dihydro-pyridin-3-yl)-2-(2-fluoro-6-methyl-phenoxy)-5-methyl-pyrimidin-4-yl]-amide]
13 | < 500 nM | CCS(=O)(=O)Nc1nc(Oc2c(C)cccc2C)nc(-c2cc(C)c(=O)n(C)c2)c1C [Example 160, Ethanesulfonic acid [6-(1,5-dimethyl-6-oxo-1,6-dihydro-pyridin-3-yl)-2-(2,6-dimethyl-phenoxy)-5-methyl-pyrimidin-4-yl]-amide]
14 | < 500 nM | Cc1cccc(C)c1Oc1nc(NS(=O)(=O)C(C)C)c(C)c(-c2cc(C)c(=O)n(C)c2)n1 [Example 163, Propane-2-sulfonic acid [6-(1,5-dimethyl-6-oxo-1,6-dihydro-pyridin-3-yl)-2-(2,6-dimethyl-phenoxy)-5-methyl-pyrimidin-4-yl]-amide]
15 | < 500 nM | Cc1c(NS(=O)(=O)C(C)C)nc(Oc2ccc(F)cc2F)nc1-c1cc(C)c(=O)n(C)c1 [Example 165, Propane-2-sulfonic acid [2-(2,4-difluoro-phenoxy)-6-(1,5-dimethyl-6-oxo-1,6-dihydro-pyridin-3-yl)-5-methyl-pyrimidin-4-yl]-amide]
16 | < 500 nM | CCC(F)(F)S(=O)(=O)Nc1cc(-c2cc(C)c(=O)n(C)c2)nc(Oc2c(C)cccc2F)n1 [Example 167, 1,1-Difluoro-propane-1-sulfonic acid [6-(1,5-dimethyl-6-oxo-1,6-dihydro-pyridin-3-yl)-2-(2-fluoro-6-methyl-phenoxy)-pyrimidin-4-yl]-amide]
17 | < 500 nM | CCC(F)S(=O)(=O)Nc1cc(-c2ccc(=O)n(C)c2)nc(Oc2c(C)cccc2F)n1 (stereo not shown) [Example 168, 1-Fluoro-propane-1-sulfonic acid [2-(2-fluoro-6-methyl-phenoxy)-6-(1-methyl-6-oxo-1,6-dihydro-pyridin-3-yl)-pyrimidin-4-yl]-amide]
18 | < 500 nM | CCC(F)S(=O)(=O)Nc1cc(-c2cc(C)c(=O)n(C)c2)nc(Oc2c(C)cccc2F)n1 (stereo not shown) [Example 169, 1-Fluoro-propane-1-sulfonic acid [6-(1,5-dimethyl-6-oxo-1,6-dihydro-pyridin-3-yl)-2-(2-fluoro-6-methyl-phenoxy)-pyrimidin-4-yl]-amide]
19 | < 500 nM | CCCS(=O)(=O)Nc1nc(Oc2c(C)cccc2F)nc(-c2cc(C)c(=O)n(C)c2)n1 [Example 173, Propane-1-sulfonic acid [4-(1,5-dimethyl-6-oxo-1,6-dihydro-pyridin-3-yl)-6-(2-fluoro-6-methyl-phenoxy)-[1,3,5]triazin-2-yl]-amide]
20 | < 500 nM | CCCCS(=O)(=O)Nc1nc(Oc2c(C)cccc2F)nc(-c2cc(C)c(=O)n(C)c2)n1 [Example 174, Butane-1-sulfonic acid [4-(1,5-dimethyl-6-oxo-1,6-dihydro-pyridin-3-yl)-6-(2-fluoro-6-methyl-phenoxy)-[1,3,5]triazin-2-]-amide]
21 | < 500 nM | CCS(=O)(=O)Nc1nc(Oc2c(C)cccc2F)nc(-c2ccc(=O)n(C)c2)n1 [Example 175, Ethanesulfonic acid [4-(2-fluoro-6-methyl-phenxoy)-6-(1-methyl-6-oxo-1,6-dihydro-pyridin-3-yl)-[1,3,5]triazin-2-yl]-amide]
22 | < 500 nM | Cc1cccc(F)c1Oc1nc(NS(=O)(=O)C(C)C)nc(-c2ccc(=O)n(C)c2)n1 [Example 176, Propane-2-sulfonic acid [4-(2-fluoro-6-methyl-phenoxy)-6-(1-methyl-6-oxo-1,6-dihydro-pyridin-3-yl)-[1,3,5]triazin-2-yl]-amide]
